From PubChem BioAssay (NCI)
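At the GI50, growth is halved. The concentration for full growth arrest is given as TGI.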

How the values were obtained:
Experiment in all cases: inhibition of tumour cell growth, NCI panel, 384-well format
[1] = system: A498 renal
[2] = system: EKVX NSCLC
[3] = system: HOP-62 NSCLC
[4] = system: LOX IMVI melanoma
[5] = system: MCF7 breast
[6] = system: MDA-MB-468 breast
[7] = system: NCI-H322M lung
[8] = system: OVCAR-8 ovarian
[9] = system: RPMI-8226 leukemia
[10] = system: SK-MEL-2 melanoma
[11] = system: SNB-19 CNS
[12] = system: T-47D breast
[13] = system: UACC-62 melanoma

SMILES | GI50 [1] [µM] | TGI [1] [µM] | GI50 [2] [µM] | TGI [2] [µM] | GI50 [3] [µM] | TGI [3] [µM] | GI50 [4] [µM] | TGI [4] [µM] | GI50 [5] [µM] | TGI [5] [µM] | GI50 [6] [µM] | TGI [6] [µM] | GI50 [7] [µM] | TGI [7] [µM] | GI50 [8] [µM] | TGI [8] [µM] | GI50 [9] [µM] | TGI [9] [µM] | GI50 [10] [µM] | TGI [10] [µM] | further results
CC1(N)CCN(c2cnc(-c3cccc(Cl)c3Cl)c(N)n2)CC1 | 4.27 | 19.7 | 8.83 | 30.8 | 24.3 | > 74 | 17.1 | 31 | 15.5 | 29.7 | 0.898 | 5.96 | 3.73 | 47.2 | 27.9 | > 100 | 13.9 | 28.9 | 13.7 | 26.6 | GI50 [11]: 11.9 µM; TGI [11]: > 74.3 µM; GI50 [12]: 13.3 µM; TGI [12]: 27.9 µM; GI50 [13]: 18.7 µM; TGI [13]: 32.9 µM
NS(=O)(=O)NCCNc1nonc1C(=Nc1ccc(F)c(Br)c1)NO | 4.27 | > 80.2 | 31.8 | > 100 | 39.9 | > 100 | 34.5 | > 100 | 38.8 | > 100 | 14.6 | 33.1 | 34.2 | > 100 | 46.9 | > 100 | 17.6 | 35.2 | 20.1 | 47.1 | GI50 [11]: 42.1 µM; TGI [11]: > 100 µM; GI50 [12]: 23.9 µM; TGI [12]: > 74.5 µM; GI50 [13]: 24.5 µM; TGI [13]: > 100 µM
